Laboratory results published in ChEMBL document CHEMBL1121871, “Azaprostaglandin analogues. Synthesis and biological properties of 11-azaprostaglandin derivatives” (1981).
The source made the active and inactive calls. The calls are words filed in the database; no cut-off is given here.

What was measured:
[1] = species on record: Cavia porcellus; assay: Tested for activity of the 250 ng/ml compound to inhibit ADP-induced aggregation in guinea pig platelet rich plasma; Inactive; assay type: functional, organism-based
[2] = species on record: Rattus norvegicus; assay: Compound was tested for its activity to stimulate rat uterus at concentration of 2-10 e-6 g/mL; Showed very little stimulation; assay type: functional, organism-based
[3] = species on record: Rattus norvegicus; assay: Tested for enhancement against rythemice contractions and tone of rat portal vein at concentrations ranging from 2*10e-6-1*10e-5 g/mL; Active; assay type: functional, organism-based
[4] = Compound was evaluated for the potency ratio in anesthetized rats; assay type: functional

With `CCCCC[C@@H](O)/C=C/[C@H]1NC(=O)C[C@@H]1CCCCCCC(=O)O` as the molecule, how does the inhibition [1] read?
The inhibition was “inactive”.

And the Activity [2]?
The Activity was “very little stimulation”.

And the Enhancement [3]?
Its Enhancement is “Active”.

What about the “Potency Ratio” value [4] of the same molecule?
The value was 0.13.
